In US20230382894A1, “CCR4 ANTAGONISTS” (CHEMOCENTRYX, INC., priority 2022, published 2023):

Key:
CCR4 [1] = biological target: T1, CCR4 (Homo sapiens, UniProt P51679); assay: CEM cell chemotaxis (migration) assay to CCL22 (MDC) in HBSS buffer with 0.1% BSA; type: cell-based; settings: CEM cells in HBSS with 0.1% BSA; recombinant human CCL22 0.1 nM; 37° C. 60 minutes
T1 construct: CEM Cells Endogenous Express CCR4; endogenous in cells; host or cells: CEM cells
T1 sequence (P51679 1-360): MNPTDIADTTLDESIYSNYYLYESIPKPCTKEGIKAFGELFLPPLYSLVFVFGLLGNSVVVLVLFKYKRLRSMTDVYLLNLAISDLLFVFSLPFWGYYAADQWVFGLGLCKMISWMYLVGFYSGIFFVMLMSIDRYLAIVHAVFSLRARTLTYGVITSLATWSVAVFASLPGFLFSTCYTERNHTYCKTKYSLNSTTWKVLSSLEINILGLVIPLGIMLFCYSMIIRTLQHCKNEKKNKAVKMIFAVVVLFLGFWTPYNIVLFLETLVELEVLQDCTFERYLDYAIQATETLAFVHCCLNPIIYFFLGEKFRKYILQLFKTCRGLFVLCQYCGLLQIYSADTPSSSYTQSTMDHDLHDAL
Excerpt: CEM Cells Endogenous Express CCR4
A chemotaxis assay can be used to determine the efficacy of potential receptor antagonists at blocking the migration mediated through chemokine receptors, such as CCR4. This assay is routinely performed using the ChemoTX® microchamber system with a 5 μm pore-sized polycarbonate membrane.
HBSS: CEM Cells are collected by centrifugation at 400×g at room temperature, then suspended at 5 million/ml in Hanks' Balanced Salt Solution (HBSS) buffer with 0.1% BSA. The compound being tested is serially diluted from a maximum final concentration of 10 μM (or an equivalent volume of its solvent (DMSO)) and is then added to the cell/buffer mixture. Separately, recombinant human CCL22 (MDC) at its EC50 concentration (0.1 nM) is placed in the lower wells of the ChemoTX® plate. The 5-μm (pore size) polycarbonate membrane was placed onto the plate, and 20 μL of the cell/compound mixture is transferred onto each well of the membrane. The plates are incubated at 37° C. for 60 minutes, after which the polycarbonate membranes are removed and 5 μl of the DNA-intercalating dye CyQUANT (Invitrogen, Carlsbad, CA) is added to the lower wells. The amount of fluorescence, corresponding to the number of migrated cells, is measured using a Spectrafluor Plus plate reader (TECAN, San Jose, CA).

CCR4 [2] = biological target: T1, CCR4; assay: CEM cell chemotaxis (migration) assay to CCL22 (MDC) in 100% Fetal Bovine Serum (FBS); type: cell-based; settings: CEM cells in 100% FBS with 1% HEPEs; recombinant human CCL22 0.1 nM; 37° C. 60 minutes
Outline: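 Endogenously CCR4-expressing CEM cells in 100% FBS with 1% HEPES were preincubated with serially diluted compound (top final 10 μM) and allowed to migrate through 5 μm polycarbonate membranes toward 0.1 nM human CCL22 (EC50) for 60 min at 37 °C. Migrated cells were quantified by CyQUANT fluorescence.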

Row | Structure (SMILES) | IC50 (CCR4 [1]) [nM] | IC50 (CCR4 [2]) [nM]
1 | C[C@@H](Nc1nc(N2CCC(NC(=O)C3CCOCC3)CC2)ncc1Cl)c1ccc(Cl)cc1Cl [Example 1.130] | 100 to 1000 | > 1000
2 | C[C@@H]1CN(c2ncc(Cl)c(N[C@H](C)c3ccc(Cl)cc3Cl)n2)[C@@H](C)CN1C(=O)[C@H]1CCCN1CC(=O)O [Example 1.019] | 100 to 1000 | 100 to 1000
3 | C[C@@H](Nc1nc(N2CCN(C(=O)[C@H]3CCCN3C)CC2)ncc1Cl)c1ccc(Cl)cc1Cl [Example 1.024] | < 100 | < 100
4 | CC(Nc1nc(N2CCN(C(=O)[C@H]3CCC(=O)N3)CC2)ncc1Cl)c1c(F)cc(Cl)cc1F (stereo partly shown) [Example 1.076] | < 100 | < 100
5 | C[C@@H](Nc1nc(N2CCC(NC(=O)[C@H]3CCNC3)CC2)ncc1Cl)c1ccc(Cl)cc1Cl [Example 1.061] | < 100 | < 100
6 | C[C@@H](Nc1nc(N2CC[C@@H](NC(=O)[C@H]3CCCN3)[C@@H](O)C2)ncc1Cl)c1ccc(Cl)cc1Cl [Example 1.028] | < 100 | < 100
7 | C[C@@H]1CN(c2ncc(Cl)c(N[C@H](C)c3ccc(Cl)cc3Cl)n2)CCN1C(=O)[C@H]1CCCN1 [Example 1.042] | < 100 | < 100
8 | C[C@@H](Nc1nc(N2CCN(C(=O)[C@H]3CCCN3CCC(=O)O)CC2)ncc1Cl)c1ccc(Cl)cc1Cl [Example 1.048] | < 100 | < 100
9 | C[C@@H]1CN(c2ncc(Cl)c(N[C@H](C)c3ccc(Cl)cc3Cl)n2)CCN1C(=O)N1CCNCC1 [Example 1.036] | > 1000 | > 1000
10 | C[C@@H](Nc1nc(N2CCN(C(=O)[C@H]3CCN3)CC2)ncc1Cl)c1ccc(Cl)cc1Cl [Example 1.033] | < 100 | < 100
11 | C[C@@H](Nc1nc(N2CCN(C(=O)[C@@H]3CCNC3)CC2)ncc1Cl)c1ccc(Cl)cc1Cl [Example 1.070] | < 100 | < 100
12 | C[C@@H](Nc1nc(N2CCC(C3CCCN(CCO)C3)CC2)ncc1Cl)c1ccc(Cl)cc1Cl (stereo partly shown) [Example 1.047] | < 100 | < 100
13 | C[C@@H](Nc1nc(N2CC[C@@H](NC(=O)[C@H]3CCCN3)C2)ncc1Cl)c1ccc(Cl)cc1Cl [Example 1.015] | < 100 | < 100
14 | C[C@@H]1CN(C(=O)[C@H]2CCC(=O)N2)CCN1c1ncc(Cl)c(N[C@H](C)c2ccc(Cl)cc2Cl)n1 [Example 1.078] | < 100 | < 100
15 | C[C@@H](Nc1nc(N2CC[C@H](NC(=O)[C@H]3CCCN3)C2)ncc1Cl)c1ccc(Cl)cc1Cl [Example 1.029] | < 100 | < 100
16 | C[C@@H](Nc1nc(N2CC3CC2CN3C(=O)[C@H]2CCCN2)ncc1Cl)c1ccc(Cl)cc1Cl (stereo partly shown) [Example 1.031] | 100 to 1000 | 100 to 1000
17 | C[C@@H](Nc1nc(N2CCN(C(=O)[C@H]3C[C@@H](O)CN3)CC2)ncc1Cl)c1ccc(Cl)cc1Cl [Example 1.069] | < 100 | < 100
18 | C[C@@H](Nc1nc(N2CCN(C(=O)CN(C)C)CC2)ncc1Cl)c1ccc(Cl)cc1Cl [Example 1.041] | < 100 | < 100
19 | C[C@@H](Nc1nc(N2CCN(C(=O)[C@@H]3CCCN3C(=O)OC(C)(C)C)CC2)ncc1Cl)c1ccc(Cl)cc1Cl [Example 1.050] | 100 to 1000 | > 1000
20 | C[C@@H](Nc1nc(N2CCC(NC(=O)[C@@H]3CNCCO3)CC2)ncc1Cl)c1ccc(Cl)cc1Cl [Example 1.131] | 100 to 1000 | > 1000
21 | C[C@@H](Nc1nc(N2CCN(C(=O)[C@@H]3CCN(C)C3)CC2)ncc1Cl)c1ccc(Cl)cc1Cl [Example 1.066] | < 100 | < 100
22 | C[C@@H](Nc1nc(N2CCC(NC(=O)[C@H]3CCN(C)C3)CC2)ncc1Cl)c1ccc(Cl)cc1Cl [Example 1.060] | < 100 | < 100
23 | Cc1cnc(N2CCN(C(=O)[C@H]3CCCN3)CC2)nc1N[C@H](C)c1ccc(Cl)cc1Cl [Example 1.071] | < 100 | < 100
